PMC13502167, “Ampyrone is a direct agonist of human tyrosinase and a potential therapeutic for hypopigmentation disorders” (JCI Insight, 2026)
Numbering of substitutions follows the chain as printed. Read-outs that look alike come from different tables or passages of the source.

Key:
[1] = target: T1, human tyrosinase (hTYR^WT) (Homo sapiens, UniProt P14679); assay: biochemical
T1 construct: gene TYR
T1 sequence (P14679 19-469): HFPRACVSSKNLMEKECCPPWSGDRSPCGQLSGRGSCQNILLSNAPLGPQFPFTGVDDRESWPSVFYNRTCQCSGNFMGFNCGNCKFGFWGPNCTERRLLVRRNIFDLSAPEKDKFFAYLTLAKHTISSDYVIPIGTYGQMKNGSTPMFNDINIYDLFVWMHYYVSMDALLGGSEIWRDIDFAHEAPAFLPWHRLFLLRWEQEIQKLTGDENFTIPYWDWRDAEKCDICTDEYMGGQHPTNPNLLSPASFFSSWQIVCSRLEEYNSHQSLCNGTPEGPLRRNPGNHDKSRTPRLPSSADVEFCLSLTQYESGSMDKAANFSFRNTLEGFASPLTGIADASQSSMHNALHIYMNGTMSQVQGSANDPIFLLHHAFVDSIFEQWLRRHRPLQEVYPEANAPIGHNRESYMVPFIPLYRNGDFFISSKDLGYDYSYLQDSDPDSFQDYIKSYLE

[2] = target: T2, human tyrosinase (hTYR^P406L) (Homo sapiens, UniProt P14679, P406L); assay: activation of diphenol oxidase and monophenolase activity of purified enzyme; format: biochemical
T2 construct: gene TYR; recombinant intramelanosomal domain, P406L variant, His-tag
T2 sequence (P14679 19-469 P406L): T1 sequence (P14679 19-469) with P388L

[3] = target: T1, human tyrosinase (hTYR^WT); assay: activation of diphenol oxidase and monophenolase activity of purified enzyme; urea denaturation; format: biochemical

Row | Compound | IC50 ([1]; read-out: IC50) | further results
1 | Oc1ccc(C2=Cc3ccc(O)cc3OC2)cc1 [idronoxil] | – | IC50 [1]: 29.1 µM
2 | Oc1ccc(Nc2ccccc2)cc1 [4-anilinophenol] | 3.2 µM | –
3 | Cc1c(N)c(=O)n(-c2ccccc2)n1C [ampyrone, 4-Amino-2,3-dimethyl-1-phenyl-3-pyrazol-5-one] | – | EC50 [2]: 3570 µM; EC50 [3]: 670 µM
4 | O=c1cc(-c2ccc(O)c(O)c2)oc2ccccc12 [3’,4’-dihydroxyflavone] | 9.22 µM | –
5 | Nc1nc2nc[nH]c2c(=S)[nH]1 [6-thioguanine] | 540 µM | –

More lines, in order of falling IC50 ([1]; read-out: IC50), values ahead:

Row | IC50 ([1]; read-out: IC50) | Compound | further results
6 | 8.12 µM | CN(C)c1ccc(N=NS(=O)(=O)O)cc1 [fenaminosulf] | –
7 | 1.45 µM | COc1ccc(-c2cc(=S)ss2)cc1 [anethole trithione] | –
